Assay results: ChEMBL document CHEMBL3864157, “The synthesis and antistaphylococcal activity of dehydroabietic acid derivatives: Modifications at C-12” (2016)
In brackets after ≈: the same amount, converted by molar mass.

How the values were obtained:
Assay type in all cases: functional
[1] = tested on: Staphylococcus aureus; experiment: Antibacterial activity against Staphylococcus aureus Newman
[2] = tested on: Staphylococcus aureus; experiment: Antibacterial activity against gentamicin-resistant Staphylococcus aureus NRS-108
[3] = tested on: Staphylococcus aureus; experiment: Antibacterial activity against linezolid-resistant Staphylococcus aureus NRS-271
[4] = tested on: Staphylococcus aureus; experiment: Antibacterial activity against erythromycin-resistant Staphylococcus aureus NRS-70
[5] = tested on: Staphylococcus aureus; experiment: Antibacterial activity against oxacillin/tetracycline-resistant Staphylococcus aureus NRS-100
[6] = tested on: Staphylococcus aureus; experiment: Antibacterial activity against aminoglycosides/tetracycline-resistant Staphylococcus aureus NRS-1

| SMILES | MIC [1] [µg/mL] | MIC [2] [µg/mL] | MIC [3] [µg/mL] | MIC [4] [µg/mL] | MIC [5] [µg/mL] | MIC [6] [µg/mL] |
| --- | --- | --- | --- | --- | --- | --- |
| C=CCO/N=C(\C)c1cc2c(cc1C(C)C)CC[C@H]1[C@](C)(C(=O)O)CCC[C@]21C | 30 to 40 (≈ 75.5 to 101 µM) |  |  |  |  |  |
| CC(C)c1cc2c(cc1C(=NO)c1ccc(C(F)(F)F)cc1)[C@@]1(C)CCC[C@@](C)(C(=O)O)[C@@H]1CC2 | > 50 |  |  |  |  |  |
| CC(C)c1cc2c(cc1C(=NOCc1ccccc1)c1ccccc1)[C@@]1(C)CCC[C@@](C)(C(=O)O)[C@@H]1CC2 | > 50 |  |  |  |  |  |
| C#CCON=C(c1ccc(C(F)(F)F)cc1)c1cc2c(cc1C(C)C)CC[C@H]1[C@](C)(C(=O)O)CCC[C@]21C | > 50 |  |  |  |  |  |
| CC(C)c1ccc2c(c1)CC[C@H]1[C@](C)(C(=O)O)CCC[C@]21C [DEHYDROABIETIC ACID] | 12.5 to 20 (≈ 41.6 to 66.6 µM) | 12.5 to 25 (≈ 41.6 to 83.2 µM) | 12.5 to 25 (≈ 41.6 to 83.2 µM) | 12.5 to 25 (≈ 41.6 to 83.2 µM) | 12.5 to 25 (≈ 41.6 to 83.2 µM) | 12.5 to 25 (≈ 41.6 to 83.2 µM) |
| CCC(=NOC)c1cc2c(cc1C(C)C)CC[C@H]1[C@](C)(C(=O)O)CCC[C@]21C | > 50 |  |  |  |  |  |
| CON=C(c1ccc(C(F)(F)F)cc1)c1cc2c(cc1C(C)C)CC[C@H]1[C@](C)(C(=O)O)CCC[C@]21C | > 50 |  |  |  |  |  |
| C=CCON=C(c1cc2c(cc1C(C)C)CC[C@H]1[C@](C)(C(=O)O)CCC[C@]21C)C(C)C | 10 to 12.5 (≈ 23.5 to 29.4 µM) |  |  |  |  |  |
| C#CCON=C(c1ccccc1)c1cc2c(cc1C(C)C)CC[C@H]1[C@](C)(C(=O)O)CCC[C@]21C | 2.5 (≈ 5.46 µM) | 3.13 to 6.25 (≈ 6.84 to 13.7 µM) | 3.13 to 6.25 (≈ 6.84 to 13.7 µM) | 1.56 to 2.5 (≈ 3.41 to 5.46 µM) | 3.13 (≈ 6.84 µM) | 6.25 to 12.5 (≈ 13.7 to 27.3 µM) |
| CON=C(c1cccc(C(F)(F)F)c1)c1cc2c(cc1C(C)C)CC[C@H]1[C@](C)(C(=O)O)CCC[C@]21C | 1.56 to 3.13 (≈ 3.11 to 6.24 µM) | > 25 | > 25 | > 25 | > 25 | > 25 |
| CC(C)c1cc2c(cc1C(=NO)C1CCCCC1)[C@@]1(C)CCC[C@@](C)(C(=O)O)[C@@H]1CC2 | 12.5 to 25 (≈ 29.4 to 58.7 µM) |  |  |  |  |  |
| CN[C@H](CC(C)C)C(=O)N[C@H]1C(=O)N[C@@H](CC(N)=O)C(=O)N[C@H]2C(=O)N[C@H]3C(=O)N[C@H](C(=O)N[C@H](C(=O)O)c4cc(O)cc(O)c4-c4cc3ccc4O)[C@H](O)c3ccc(c(Cl)c3)Oc3cc2cc(c3O[C@@H]2O[C@H](CO)[C@@H](O)[C@H](O)[C@H]2O[C@H]2C[C@](C)(N)[C@H](O)[C@H](C)O2)Oc2ccc(cc2Cl)[C@H]1O [VANCOMYCIN] | 0.78 to 1.56 (≈ 0.538 to 1.08 µM) | 0.39 to 0.78 (≈ 0.269 to 0.538 µM) | 0.39 to 0.78 (≈ 0.269 to 0.538 µM) | 0.2 to 0.39 (≈ 0.138 to 0.269 µM) | 0.39 to 0.78 (≈ 0.269 to 0.538 µM) | 1.56 to 3.13 (≈ 1.08 to 2.16 µM) |
| C#CCON=C(c1cccc(C(F)(F)F)c1)c1cc2c(cc1C(C)C)CC[C@H]1[C@](C)(C(=O)O)CCC[C@]21C | 1.56 to 3.13 (≈ 2.97 to 5.95 µM) | > 25 | > 25 | > 25 | > 25 | > 25 |
| CON=C(c1cc2c(cc1C(C)C)CC[C@H]1[C@](C)(C(=O)O)CCC[C@]21C)c1ccccc1C(F)(F)F | 0.39 to 0.78 (≈ 0.778 to 1.56 µM) | 6.25 to 12.5 (≈ 12.5 to 24.9 µM) | 1.56 to 3.13 (≈ 3.11 to 6.24 µM) | 1.56 to 3.13 (≈ 3.11 to 6.24 µM) | 3.13 to 6.25 (≈ 6.24 to 12.5 µM) | 3.13 to 6.25 (≈ 6.24 to 12.5 µM) |
| CON=C(c1ccc(Cl)cc1Cl)c1cc2c(cc1C(C)C)CC[C@H]1[C@](C)(C(=O)O)CCC[C@]21C | 1.56 to 3.13 (≈ 3.1 to 6.23 µM) | > 25 | > 25 | 1.56 to 3.13 (≈ 3.1 to 6.23 µM) | > 25 | > 25 |
| CON=C(c1cc2c(cc1C(C)C)CC[C@H]1[C@](C)(C(=O)O)CCC[C@]21C)C1CCCCC1 | > 50 |  |  |  |  |  |
| C=CCON=C(c1ccc(C(F)(F)F)cc1)c1cc2c(cc1C(C)C)CC[C@H]1[C@](C)(C(=O)O)CCC[C@]21C | > 50 |  |  |  |  |  |
| CCCC(=NOCc1ccccc1)c1cc2c(cc1C(C)C)CC[C@H]1[C@](C)(C(=O)O)CCC[C@]21C | > 50 |  |  |  |  |  |
| C#CCON=C(c1cc2c(cc1C(C)C)CC[C@H]1[C@](C)(C(=O)O)CCC[C@]21C)C1CCCCC1 | > 50 |  |  |  |  |  |
| C#CCON=C(c1cc2c(cc1C(C)C)CC[C@H]1[C@](C)(C(=O)O)CCC[C@]21C)c1ccccc1C(F)(F)F | 1.56 to 3.13 (≈ 2.97 to 5.95 µM) | > 25 | > 25 | > 25 | > 25 | > 25 |
| C=CCON=C(CC)c1cc2c(cc1C(C)C)CC[C@H]1[C@](C)(C(=O)O)CCC[C@]21C | > 50 |  |  |  |  |  |
| C#CCON=C(c1cc2c(cc1C(C)C)CC[C@H]1[C@](C)(C(=O)O)CCC[C@]21C)C(C)C | 10 to 12.5 (≈ 23.6 to 29.5 µM) |  |  |  |  |  |
| CC(C)c1cc2c(cc1C(=NO)c1cccs1)[C@@]1(C)CCC[C@@](C)(C(=O)O)[C@@H]1CC2 | 6.25 to 12.5 (≈ 14.7 to 29.4 µM) |  |  |  |  |  |
| C#CCON=C(CC)c1cc2c(cc1C(C)C)CC[C@H]1[C@](C)(C(=O)O)CCC[C@]21C | 20 to 25 (≈ 48.8 to 61 µM) |  |  |  |  |  |
| C#CCON=C(CCC)c1cc2c(cc1C(C)C)CC[C@H]1[C@](C)(C(=O)O)CCC[C@]21C | 15 to 20 (≈ 35.4 to 47.2 µM) |  |  |  |  |  |
